According to US11254688B2 (Boehringer Ingelheim International GmbH, priority 2018, dated 2022):

Target: T1, hGOAT (Homo sapiens, UniProt Q96T53)
T1 construct: expressed in transfected cells; host or cells: HEK293 (Hek293 hGOAT/PPGhrl Clone #1B8)
T1 sequence (Q96T53 1-435): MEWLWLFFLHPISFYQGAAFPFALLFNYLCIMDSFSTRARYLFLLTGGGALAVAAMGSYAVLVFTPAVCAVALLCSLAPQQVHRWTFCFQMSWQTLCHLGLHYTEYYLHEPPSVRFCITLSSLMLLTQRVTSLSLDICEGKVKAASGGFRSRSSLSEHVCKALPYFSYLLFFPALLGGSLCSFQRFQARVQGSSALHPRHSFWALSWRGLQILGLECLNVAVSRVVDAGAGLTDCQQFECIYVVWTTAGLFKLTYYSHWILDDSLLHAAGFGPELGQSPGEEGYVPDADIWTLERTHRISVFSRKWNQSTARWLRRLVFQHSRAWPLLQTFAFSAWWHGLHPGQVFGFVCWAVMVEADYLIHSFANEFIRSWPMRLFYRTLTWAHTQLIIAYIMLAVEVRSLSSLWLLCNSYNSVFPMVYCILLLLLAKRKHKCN
Test: Determination of hGOAT activity in HEK293 cells after incubation with test compound (acyl-ghrelin ELISA)
Format: cell-based
Details: HEK293 cells stably transfected with preproghrelin and human GOAT; octanoate-BSA 100 μM; 5 hours incubation; acyl-ghrelin in medium by ELISA; 8 compound concentrations

Row | Structure (SMILES) | IC50 [nM]
1 | Cc1nc2nonc2c(N)c1Cc1ccc(Cl)nc1C(F)(F)F [Compound 25.3, 6-{[6-Chloro-2-(trifluoromethyl)pyridin-3-yl]methyl}-5-methyl-[1,2,5]oxadiazolo[3,4-b]pyridin-7-amine] | 7.36
2 | Cc1nc2nonc2c(N)c1Cc1cnc(Cl)c(C(F)(F)F)c1 [Compound 25.4, 6-{[6-chloro-5-(trifluoromethyl)pyridin-3-yl]methyl}-5-methyl-[1,2,5]oxadiazolo[3,4-b]pyridin-7-amine] | 1.35
